# “And” between values parts separate entries of the source, which are not always exact repeats. Equal entries are not always repeated.
# Assays:
# human μ opioid receptor = target: T1, human μ opioid receptor (Homo sapiens, UniProt P35372); test: radioligand binding, human opioid μ receptor ([3H]DAMGO, HEK293 cells)
# T1 construct: host or cells: HEK293 cells
# [1] = target: human histamine H3 receptor; parameters: method as in PMID 28797771; settings: [3H]Nα-methylhistamine in HEK293 cells; cited from earlier work
# hMAO B = tested on: hMAO B; parameters: method as in PMID 34208297; settings: cited from earlier work
# T1 sequence (P35372 whole entry): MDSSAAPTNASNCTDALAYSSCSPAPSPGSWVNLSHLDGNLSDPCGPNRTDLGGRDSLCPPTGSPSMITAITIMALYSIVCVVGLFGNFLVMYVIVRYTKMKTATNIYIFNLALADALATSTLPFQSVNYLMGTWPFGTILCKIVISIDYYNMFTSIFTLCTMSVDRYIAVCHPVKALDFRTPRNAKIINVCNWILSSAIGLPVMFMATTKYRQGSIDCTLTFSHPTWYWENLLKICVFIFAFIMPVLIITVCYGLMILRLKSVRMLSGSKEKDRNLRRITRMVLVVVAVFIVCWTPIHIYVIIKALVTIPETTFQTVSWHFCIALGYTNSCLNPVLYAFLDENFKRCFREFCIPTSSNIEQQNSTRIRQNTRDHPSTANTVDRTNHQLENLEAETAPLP
smiles,measurement,setting,value
"O=C(O)C(=O)O.c1ccc(-c2ccc(OCCCCCN3CCCCCC3)cc2)cc1 [Compound E153, 1-(5-(4-Phenylphenoxy)pentyl)azepane hydrogen oxalate]",inhibition at 1 µM,human μ opioid receptor,11%
same,Ki,[1],34 nM and 33.9 nM
same,IC50,hMAO B,240 nM

# Reference: PMC10609854 (Pharmaceuticals, 2023)
